Laboratory results taken from US20150017667A1, “MEANS AND METHODS FOR ASSESSING LIVER DISORDERS” (BASF SE, priority 2012, published 2015).
Marks after values point to notes of the source that are not given here.

System: male rats
Assay: 28-day repeated dose oral toxicity study (OECD 407) with GC-MS/LC-MS plasma metabolite profiling, male rats
Assay type: in vivo, rat
Details: plasma
Excerpt: Drinking water was also offered ad libitum.
The samples were centrifuged for generation of plasma.

CC(C)(Oc1ccc(CCNC(=O)c2ccc(Cl)cc2)cc1)C(=O)O [Bezafibrate]
3-O-Methylsphingosine (d18:1), ratio versus control (day 7): 0.48* | 5-O-Methylsphingosine (d18:1), ratio versus control (day 7): 0.4* | 14-Methylhexadecanoic acid, ratio versus control (day 7): 0.93 | 16-Methylheptadecanoic acid, ratio versus control (day 7): 0.29* | 17-Methyloctadecanoic acid, ratio versus control (day 7): 0.24* | Arachidonic acid (C20:cis[5,8,11,14]4), ratio versus control (day 7): 0.26* | Arginine, ratio versus control (day 7): 0.65* | Ascorbic acid, ratio versus control (day 7): 1.54* | Behenic acid (C22:0), ratio versus control (day 7): 0.44* | Campesterol, ratio versus control (day 7): 0.24* | Cholesterol, ratio versus control (day 7): 0.37* | Choline plasmalogen (C18,C20:4), ratio versus control (day 7): 0.47* | Choline plasmalogen No 01, ratio versus control (day 7): 0.87* | Choline plasmalogen No 02, ratio versus control (day 7): 0.46* | Choline plasmalogen No 03, ratio versus control (day 7): 0.49* | Coenzyme Q10, ratio versus control (day 7): 0.46* | Cytosine, ratio versus control (day 7): 0.89* | Docosapentaenoic acid (C22:cis[7,10,13,16,19]5), ratio versus control (day 7): 0.43* | Eicosanoic acid (C20:0), ratio versus control (day 7): 0.51* | Glucose, ratio versus control (day 7): 1.54* | Glycine, ratio versus control (day 7): 1.79* | Heptadecanoic acid (C17:0), ratio versus control (day 7): 0.69* | Isopalmitic acid (C16:0), ratio versus control (day 7): 0.53* | Kynurenic acid, ratio versus control (day 7): 1.89* | Lignoceric acid (C24:0), ratio versus control (day 7): 0.54* | Lysophosphatidylcholine (C17:0), ratio versus control (day 7): 0.51* | Lysophosphatidylcholine (C18:0), ratio versus control (day 7): 0.79* | Lysophosphatidylcholine (C18:2), ratio versus control (day 7): 1.4* | Lysophosphatidylethanolamine (C22:0), ratio versus control (day 7): 0.27* | Lysophosphatidylethanolamine (C22:5), ratio versus control (day 7): 1.59* | Mannose, ratio versus control (day 7): 1.32* | Metanephrine, ratio versus control (day 7): 0.5 | Nervonic acid (C24:cis[15]1), ratio versus control (day 7): 0.4* | Normetanephrine, ratio versus control (day 7): 0.6* | Pantothenic acid, ratio versus control (day 7): 2.36* | Phosphatidylcholine (C18:0,C20:3), ratio versus control (day 7): 0.48* | Phosphatidylcholine (C18:0,C20:4), ratio versus control (day 7): 0.78* | Phosphatidylcholine (C18:2,C20:4), ratio versus control (day 7): 0.65* | Phosphatidylcholine No 02, ratio versus control (day 7): 0.35* | Phosphatidylcholine No 04, ratio versus control (day 7): 0.23* | Sphingomyelin (d18:1,C16:0), ratio versus control (day 7): 0.88* | Sphingomyelin (d18:2,C16:0), ratio versus control (day 7): 0.72* | Stearic acid (C18:0), ratio versus control (day 7): 0.42* | Tricosanoic acid (C23:0), ratio versus control (day 7): 0.5* | beta-Sitosterol, ratio versus control (day 7): 0.24* | dihomo-gamma-Linolenic acid (C20:cis[8,11,14]3), ratio versus control (day 7): 3.63* | erythro-Sphingosine, ratio versus control (day 7): 0.49* | myo-Inositol-2-phosphate, lipid fraction, ratio versus control (day 7): 0.28* | threo-Sphingosine, ratio versus control (day 7): 0.56* | trans-4-Hydroxyproline, ratio versus control (day 7): 0.71* | Lysophosphatidylcholine (C18:1), ratio versus control (day 7 (Table 3a)): 1.44* | Phosphatidylcholine (C16:0,C20:5), ratio versus control (day 7 (Table 3a)): 1.4* | Docosahexaenoic acid (C22:cis[4,7,10,13,16,19]6), ratio versus control (day 7 (Table 3b)): 0.25* | Phosphatidylcholine (C18:0,C22:6), ratio versus control (day 7 (Table 3b)): 0.36* | alpha-Tocopherol, ratio versus control (day 7 (Table 3b)): 0.75* | 3-O-Methylsphingosine (d18:1), ratio versus control (day 14): 0.44* | 5-O-Methylsphingosine (d18:1), ratio versus control (day 14): 0.41* | 14-Methylhexadecanoic acid, ratio versus control (day 14): 0.89* | 16-Methylheptadecanoic acid, ratio versus control (day 14): 0.25* | 17-Methyloctadecanoic acid, ratio versus control (day 14): 0.24* | Arachidonic acid (C20:cis[5,8,11,14]4), ratio versus control (day 14): 0.31* | Arginine, ratio versus control (day 14): 0.59* | Ascorbic acid, ratio versus control (day 14): 1.32* | Behenic acid (C22:0), ratio versus control (day 14): 0.58* | Campesterol, ratio versus control (day 14): 0.31* | Cholesterol, ratio versus control (day 14): 0.48* | Choline plasmalogen (C18,C20:4), ratio versus control (day 14): 0.5* | Choline plasmalogen No 01, ratio versus control (day 14): 0.82* | Choline plasmalogen No 02, ratio versus control (day 14): 0.52* | Choline plasmalogen No 03, ratio versus control (day 14): 0.63* | Coenzyme Q10, ratio versus control (day 14): 0.58* | Cytosine, ratio versus control (day 14): 0.84 | Docosapentaenoic acid (C22:cis[7,10,13,16,19]5), ratio versus control (day 14): 0.62* | Eicosanoic acid (C20:0), ratio versus control (day 14): 0.67* | Glucose, ratio versus control (day 14): 1.29* | Glycine, ratio versus control (day 14): 1.58* | Heptadecanoic acid (C17:0), ratio versus control (day 14): 0.83* | Isopalmitic acid (C16:0), ratio versus control (day 14): 0.53* | Kynurenic acid, ratio versus control (day 14): 5.15* | Lignoceric acid (C24:0), ratio versus control (day 14): 0.44* | Lysophosphatidylcholine (C17:0), ratio versus control (day 14): 0.51* | Lysophosphatidylcholine (C18:0), ratio versus control (day 14): 0.85* | Lysophosphatidylcholine (C18:2), ratio versus control (day 14): 1.68* | Lysophosphatidylethanolamine (C22:0), ratio versus control (day 14): 0.32* | Lysophosphatidylethanolamine (C22:5), ratio versus control (day 14): 1.9* | Mannose, ratio versus control (day 14): 1.34* | Metanephrine, ratio versus control (day 14): 0.44* | Nervonic acid (C24:cis[15]1), ratio versus control (day 14): 0.44* | Normetanephrine, ratio versus control (day 14): 0.5* | Pantothenic acid, ratio versus control (day 14): 2.3* | Phosphatidylcholine (C18:0,C20:3), ratio versus control (day 14): 0.56* | Phosphatidylcholine (C18:0,C20:4), ratio versus control (day 14): 0.78 | Phosphatidylcholine (C18:2,C20:4), ratio versus control (day 14): 0.66* | Phosphatidylcholine No 02, ratio versus control (day 14): 0.37* | Phosphatidylcholine No 04, ratio versus control (day 14): 0.25* | Sphingomyelin (d18:1,C16:0), ratio versus control (day 14): 0.83* | Sphingomyelin (d18:2,C16:0), ratio versus control (day 14): 0.67* | Stearic acid (C18:0), ratio versus control (day 14): 0.45* | Tricosanoic acid (C23:0), ratio versus control (day 14): 0.72* | beta-Sitosterol, ratio versus control (day 14): 0.3* | dihomo-gamma-Linolenic acid (C20:cis[8,11,14]3), ratio versus control (day 14): 4.4* | erythro-Sphingosine, ratio versus control (day 14): 0.4* | myo-Inositol-2-phosphate, lipid fraction, ratio versus control (day 14): 0.37* | threo-Sphingosine, ratio versus control (day 14): 0.52* | trans-4-Hydroxyproline, ratio versus control (day 14): 0.57* | Lysophosphatidylcholine (C18:1), ratio versus control (day 14 (Table 3a)): 1.92* | Phosphatidylcholine (C16:0,C20:5), ratio versus control (day 14 (Table 3a)): 1.4* | Docosahexaenoic acid (C22:cis[4,7,10,13,16,19]6), ratio versus control (day 14 (Table 3b)): 0.25* | Phosphatidylcholine (C18:0,C22:6), ratio versus control (day 14 (Table 3b)): 0.33* | alpha-Tocopherol, ratio versus control (day 14 (Table 3b)): 0.77* | 3-O-Methylsphingosine (d18:1), ratio versus control (day 28): 0.39* | 5-O-Methylsphingosine (d18:1), ratio versus control (day 28): 0.4* | 14-Methylhexadecanoic acid, ratio versus control (day 28): 0.83* | 16-Methylheptadecanoic acid, ratio versus control (day 28): 0.16* | 17-Methyloctadecanoic acid, ratio versus control (day 28): 0.17* | Arachidonic acid (C20:cis[5,8,11,14]4), ratio versus control (day 28): 0.29* | Arginine, ratio versus control (day 28): 0.62* | Ascorbic acid, ratio versus control (day 28): 1.55* | Behenic acid (C22:0), ratio versus control (day 28): 0.51* | Campesterol, ratio versus control (day 28): 0.21* | Cholesterol, ratio versus control (day 28): 0.43* | Choline plasmalogen (C18,C20:4), ratio versus control (day 28): 0.51* | Choline plasmalogen No 01, ratio versus control (day 28): 0.55* | Choline plasmalogen No 02, ratio versus control (day 28): 0.49* | Choline plasmalogen No 03, ratio versus control (day 28): 0.54* | Coenzyme Q10, ratio versus control (day 28): 0.48* | Cytosine, ratio versus control (day 28): 0.79* | Docosapentaenoic acid (C22:cis[7,10,13,16,19]5), ratio versus control (day 28): 0.31* | Eicosanoic acid (C20:0), ratio versus control (day 28): 0.52* | Glucose, ratio versus control (day 28): 1.32* | Glycine, ratio versus control (day 28): 1.95* | Heptadecanoic acid (C17:0), ratio versus control (day 28): 0.52* | Isopalmitic acid (C16:0), ratio versus control (day 28): 0.47* | Kynurenic acid, ratio versus control (day 28): 2.04* | Lignoceric acid (C24:0), ratio versus control (day 28): 0.44* | Lysophosphatidylcholine (C17:0), ratio versus control (day 28): 0.36* | Lysophosphatidylcholine (C18:0), ratio versus control (day 28): 0.86* | Lysophosphatidylcholine (C18:2), ratio versus control (day 28): 1.33* | Lysophosphatidylethanolamine (C22:0), ratio versus control (day 28): 0.18* | Lysophosphatidylethanolamine (C22:5), ratio versus control (day 28): 1.29* | Mannose, ratio versus control (day 28): 1.23* | Metanephrine, ratio versus control (day 28): 0.55* | Nervonic acid (C24:cis[15]1), ratio versus control (day 28): 0.39* | Normetanephrine, ratio versus control (day 28): 0.78* | Pantothenic acid, ratio versus control (day 28): 3.51* | Phosphatidylcholine (C18:0,C20:3), ratio versus control (day 28): 0.57* | Phosphatidylcholine (C18:0,C20:4), ratio versus control (day 28): 0.75* | Phosphatidylcholine (C18:2,C20:4), ratio versus control (day 28): 0.56* | Phosphatidylcholine No 02, ratio versus control (day 28): 0.47* | Phosphatidylcholine No 04, ratio versus control (day 28): 0.24* | Sphingomyelin (d18:1,C16:0), ratio versus control (day 28): 0.71* | Sphingomyelin (d18:2,C16:0), ratio versus control (day 28): 0.49* | Stearic acid (C18:0), ratio versus control (day 28): 0.39* | Tricosanoic acid (C23:0), ratio versus control (day 28): 0.54* | beta-Sitosterol, ratio versus control (day 28): 0.2* | dihomo-gamma-Linolenic acid (C20:cis[8,11,14]3), ratio versus control (day 28): 3.24* | erythro-Sphingosine, ratio versus control (day 28): 0.43* | myo-Inositol-2-phosphate, lipid fraction, ratio versus control (day 28): 0.38* | threo-Sphingosine, ratio versus control (day 28): 0.55* | trans-4-Hydroxyproline, ratio versus control (day 28): 0.72* | Lysophosphatidylcholine (C18:1), ratio versus control (day 28 (Table 3a)): 1.22* | Phosphatidylcholine (C16:0,C20:5), ratio versus control (day 28 (Table 3a)): 1.21* | Docosahexaenoic acid (C22:cis[4,7,10,13,16,19]6), ratio versus control (day 28 (Table 3b)): 0.14* | Phosphatidylcholine (C18:0,C22:6), ratio versus control (day 28 (Table 3b)): 0.27* | alpha-Tocopherol, ratio versus control (day 28 (Table 3b)): 0.64*
